Assays:
Adenosine receptor A1 = biological target: T1, Adenosine receptor A1 (Homo sapiens, UniProt P30542); assay: Binding affinity to adenosine receptor A1
T1 sequence (P30542 whole entry): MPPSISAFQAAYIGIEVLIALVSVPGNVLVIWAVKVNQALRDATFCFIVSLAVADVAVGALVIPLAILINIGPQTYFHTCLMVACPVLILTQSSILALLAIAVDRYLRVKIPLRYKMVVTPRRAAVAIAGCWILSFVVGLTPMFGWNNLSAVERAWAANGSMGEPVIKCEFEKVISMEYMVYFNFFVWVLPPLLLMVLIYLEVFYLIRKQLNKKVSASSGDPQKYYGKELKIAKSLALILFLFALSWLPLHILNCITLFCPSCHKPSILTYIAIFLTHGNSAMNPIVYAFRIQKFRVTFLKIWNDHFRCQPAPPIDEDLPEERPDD

Mu-type opioid receptor = Mu-type opioid receptor (Homo sapiens, UniProt P35372)
Chain of Mu-type opioid receptor (P35372 whole entry): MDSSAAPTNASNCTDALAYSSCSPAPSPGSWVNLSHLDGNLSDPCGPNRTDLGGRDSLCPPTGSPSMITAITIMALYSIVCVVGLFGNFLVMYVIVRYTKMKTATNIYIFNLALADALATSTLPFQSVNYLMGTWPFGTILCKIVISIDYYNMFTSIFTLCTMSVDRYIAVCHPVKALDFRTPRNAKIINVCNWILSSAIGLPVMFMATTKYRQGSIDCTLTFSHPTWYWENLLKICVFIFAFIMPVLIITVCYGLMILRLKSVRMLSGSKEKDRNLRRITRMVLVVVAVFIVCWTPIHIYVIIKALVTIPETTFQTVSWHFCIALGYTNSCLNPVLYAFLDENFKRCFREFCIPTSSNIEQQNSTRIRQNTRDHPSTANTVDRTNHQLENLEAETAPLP

SMILES	Ki (Adenosine receptor A1)	Ki (Mu-type opioid receptor)
C[C@@H](NC(=O)[C@@H](N)Cc1ccc(O)cc1)C(=O)NCC(=O)N(C)[C@@H](Cc1ccccc1)C(=O)NCCO [DAMGO]	> 100 µM	–
CCCn1c(=O)c2[nH]c(C3CCCC3)nc2n(CCC)c1=O [1,3-DIPROPYL-8-CYCLOPENTYLXANTHINE [DPCPX]]	–	> 100 µM
C=CCN1CC[C@]23c4c5ccc(O)c4O[C@H]2C(=O)CC[C@@]3(O)[C@H]1C5 [NALOXONE]	> 50 µM	–
